Reference: patent publication US9765039B2, “Biaryl derivatives as bromodomain inhibitors” (Zenith Epigenetics Ltd., priority 2012, dated 2017)

Legend:
Brd4 bromodomain 1 = target: T1, Brd4 bromodomain 1 (Homo sapiens, UniProt O60885); assay: Inhibition of tetra-acetylated histone H4 binding to BET bromodomains (TR-FRET); parameters: key: Active: Compounds with an IC50 value less than 30 μM were deemed to be active.; Not Active: Compounds with an IC50 value less than 30 μM were deemed to be active; details: first bromodomain of Brd4, tetra-acetylated histone H4 peptide
T1 construct: made in house; host or cells: E. coli BL21(DE3)
Description: Proteins were cloned and overexpressed with a N-terminal 6×His tag, then purified by nickel affinity followed by size exclusion chromatography. Briefly, E. coli BL21(DE3) cells were transformed with a recombinant expression vector encoding N-terminally Nickel affinity tagged bromodomains from Brd2, Brd3, Brd4. Cell cultures were incubated at 37° C. with shaking to the appropriate density and induced overnight with IPTG. The supernatant of lysed cells was loaded onto Ni-IDA column for purification. Eluted protein was pooled, concentrated and further purified by size exclusion chromatography. Fractions representing monomeric protein were pooled, concentrated, aliquoted, and frozen at −80° C. for use in subsequent experiments.
Binding of tetra-acetylated histone H4 and BET bromodomains was confirmed by a Time Resolved Fluorescence Resonance Energy Transfer (TR-FRET) method. N-terminally His-tagged bromodomains (200 nM) and biotinylated tetra-acetylated histone H4 peptide (25-50 nM, Millipore) were incubated in the presence of Europium Cryptate-labeled streptavidin (Cisbio Cat. #610SAKLB) and XL665-labeled monoclonal anti-His antibody (Cisbio Cat. #61HISXLB) in a white 96 well microtiter plate (Greiner). For inhibition assays, serially diluted test compound was added to these reactions in a 0.2% final concentration of DMSO. Final buffer concentrations were 30 mM HEPES pH 7.4, 30 mM NaCl, 0.3 mM CHAPS, 20 mM phosphate pH 7.0, 320 mM KF, 0.08% BSA). After 2 hours incubation at room temperature, the fluorescence by FRET was measured at 665 and 620 nm by a SynergyH4 plate reader (Biotek). Illustrative results with the first bromodomain of Brd4 are shown below (Table 1). The binding inhibitory activity was shown by a decrease in 665 nm fluorescence relative to 620 nm. IC50 values were determined from a dose response curve.

c-myc = assay: Inhibition of c-myc expression in cancer cell lines (mRNA, real-time PCR); type: cell-based; parameters: key: Active: Compounds with an IC50 value less than 30 μM were deemed to be active; details: Human AML MV4-11 cells, 3 hours
Description: MV4-11 cells (2.5×10^4 cells) were plated in 96 well U-bottom plates with test compound or DMSO (0.1%), and incubated for 3 hours at 37° C. Cells were then harvested by centrifugation, lysed, and mRNA was isolated using the mRNA catcher plus kit (Invitrogen). Reverse transcription of the mRNA and duplex amplification of the c-myc and cyclophilin cDNAs was performed using the RNA Ultrasense kit (Invitrogen) and a ViiA7 real-time PCR machine (Applied Biosystems). IC50 values were determined from a dose response curve.

Human AML MV-4-11 cells = assay: Inhibition of cell proliferation in cancer cell lines (CellTiter Aqueous One); type: cell-based; parameters: key: Active: Compounds with an IC50 value less than 30 μM were deemed to be active.; Not Active: Compounds with an IC50 value less than 30 μM were deemed to be active; details: 72 hours
Description: MV4-11 cells: 96-well plates were seeded with 5×10^4 cells per well of exponentially growing human AML MV-4-11 (CRL-9591) cells and immediately treated with two-fold dilutions of test compounds, ranging from 30 μM to 0.2 μM. Triplicate wells were used for each concentration, as well as a media only and three DMSO control wells. The cells and compounds were incubated at 37° C., 5% CO2 for 72 hours before adding 20 μL of the CellTiter Aqueous One Solution (Promega) to each well and incubating at 37° C., 5% CO2 for an additional 3-4 hours. The absorbance was taken at 490 nm in a spectrophotometer and the percentage of proliferation relative to DMSO-treated cells was calculated after correction from the blank well. IC50 were calculated using the GraphPad Prism software.

hIL-6 mRNA = assay: Inhibition of hIL-6 mRNA transcription in LPS-stimulated U937 macrophages; type: cell-based, human; parameters: key: Active: Compounds with an IC50 value less than 30 μM are deemed to be active; details: U937 differentiated into macrophages, 1 h pretreatment, lipopolysaccharide 3 h
Description: In this example, hIL-6 mRNA in tissue culture cells was quantitated to measure the transcriptional inhibition of hIL-6 when treated with a compound of the present disclosure.
A human leukemic monocyte lymphoma cell line (U937) was plated (3.2×10^4 cells per well) in a 96-well plate in 100 μL RPMI-1640 containing 10% FBS and penicillin/streptomycin, and differentiated into macrophages for 3 days in 60 ng/mL PMA ([…]) at 37° C. in 5% CO2 prior to the addition of the compound of interest. The cells were pretreated for 1 h with the test compound prior to stimulation with […] lipopolysaccharide from Escherichia coli. The cells were incubated at 37° C. for 3 h before the cells were harvested. At time of harvest, the spent media was removed from the cells and the cells were rinsed in 200 μL PBS. Cell lysis solution (70 μL) was added the cells in each well and incubated for 5-10 min at room temperature, to allow for complete cell lysis and detachment. mRNA was then prepared using the “mRNA Catcher PLUS plate” (Invitrogen), according to the protocol supplied. After the last wash, as much wash buffer as possible was aspirated without allowing the wells to dry. Elution buffer (E3, 70 μL) was then added to each well. mRNA was then eluted by incubating the mRNA Catcher PLUS plate with Elution Buffer for 5 min at 68° C. and then immediately placing the plate on ice.
The eluted mRNA isolated was then used in a one-step quantitative real-time PCR reaction, using components of the Ultra Sense Kit together with Applied Biosystems primer-probe mixes. Real-time PCR data was analyzed, normalizing the Ct values for hIL-6 to an internal control, prior to determining the fold induction of each unknown sample, relative to the control.

hApoA-1 mRNA = assay: Up-regulation of hApoA-1 mRNA transcription in Huh7 cells; type: cell-based, human; parameters: key: Active: Compounds with an EC170 value less than 30 μM are deemed to be active.; Not Active: Compounds with an EC170 value less than 30 μM are deemed to be active; details: 48 hrs treatment, ApoA-I mRNA
Description: In this example, ApoA-I mRNA in tissue culture cells was quantitated to measure the transcriptional up-regulation of ApoA-I when treated with a compound of the present disclosure.
Huh7 cells ([…] per well) were plated in a 96-well plate using 100 μL DMEM per well, (Gibco DMEM supplemented with penicillin/streptomycin and 10% FBS), 24 h before the addition of the compound of interest. After 48 hrs treatment, the spent media was removed from the Huh-7 cells and placed on ice (for immediate use) or at −80° C. (for future use) with the “LDH cytotoxicity assay Kit II” from Abcam. The cells remaining in the plate were rinsed with 100 μL PBS.
Then 85 μL of cell lysis solution was added to each well and incubated for 5-10 minutes at room temperature, to allow for complete cell lysis and detachment. mRNA was then prepared using the “mRNA Catcher PLUS plate” from Life Technologies, according to the protocol supplied. After the last wash, as much wash buffer as possible was aspirated without allowing the wells to dry. Elution Buffer (E3, 80 μL) was then added to each well. mRNA was then eluted by incubating the mRNA Catcher PLUS plate with Elution Buffer for 5 minutes at 68° C., and then 1 minute at 4° C. Catcher plates with mRNA eluted were kept on ice for use or stored at −80° C.
The eluted mRNA isolated was then used in a one-step real-time PCR reaction, using components of the Ultra Sense Kit together with Life Technologies primer-probe mixes. Real-time PCR data was analyzed, using the Ct values, to determine the fold induction of each unknown sample, relative to the control (that is, relative to the control for each independent DMSO concentration).
Compounds with an EC170 value less than 30 μM are deemed to be active.

FRET activity (IC50 < 30 μM) (Brd4 bromodomain 1)	c-myc activity (IC50 < 30 μM) (c-myc)	cell proliferation activity (IC50 < 30 μM) (Human AML MV-4-11 cells)	IL-6 activity (IC50 < 30 μM) (hIL-6 mRNA)	melting point	SMILES	ApoA-1 Activity (EC170 < 30 μM) (hApoA-1 mRNA)
Active	Not Active	Not Active	Active	–	COc1cc(OC)c2c(=O)[nH]c(-c3ccc(OCCO)c(-c4ccc(C(=O)N(C)C)cc4C)n3)nc2c1 [Example 3, 4-(6-(5,7-Dimethoxy-4-oxo-3,4-dihydroquinazolin-2-yl)-3-(2-hydroxyethoxy)pyridin-2-yl)-N,N,3-trimethylbenzamide]	Active
Active	Not Active	Not Active	Active	289 to 290 °C	COc1cc(OC)c2c(=O)[nH]c(-c3cccc(-c4ccc([S+](C)[O-])s4)c3)nc2c1 (centres unmarked) [Example 51, 5,7-Dimethoxy-2-(3-(5-(methylsulfinyl)thiophen-2-yl)phenyl)quinazolin-4(3H)-one]	–
Active	Not Active	Not Active	Active	316 °C (dec.)	COc1cc(OC)c2c(=O)[nH]c(-c3cc(-c4ccc([S+](C)[O-])cc4)c4[nH]ccc4c3)nc2c1 (centres unmarked) [Example 52, 5,7-Dimethoxy-2-(7-(4-(methylsulfinyl)phenyl)-1H-indol-5-yl)quinazolin-4(3H)-one]	–
Active	Not Active	Not Active	Active	248 to 251 °C	COc1cc(OC)c2c(=O)[nH]c(-c3ccc(OC)c(-c4ccc(C(=O)N(C)C)cc4C)n3)nc2c1 [Example 54, 4-(6-(5,7-Dimethoxy-4-oxo-3,4-dihydroquinazolin-2-yl)-3-methoxypyridin-2-yl)-N,N,3-trimethylbenzamide]	–
Not Active	Not Active	Not Active	Active	271 to 272 °C	COc1cc(OC)c2c(=O)[nH]c(-c3ccc(OC)c(-c4ccc(C(=O)N(C)C)cc4Cl)n3)nc2c1 [Example 56, 3-Chloro-4-(6-(5,7-dimethoxy-4-oxo-3,4-dihydroquinazolin-2-yl)-3-methoxypyridin-2-yl)-N,N-dimethylbenzamide]	–
Active	Not Active	Not Active	Active	308 to 310 °C	COc1ccc(-c2nc3cccc(OC)c3c(=O)[nH]2)nc1-c1ccc([S+](C)[O-])cc1 (centres unmarked) [Example 57, 5-Methoxy-2-(5-methoxy-6-(4-(methylsulfinyl)phenyl)pyridin-2-yl)quinazolin-4(3H)-one]	–
Active	Not Active	Not Active	Active	279 to 281 °C	COc1cc(OC)c2c(=O)[nH]c(-c3ccc(OC)c(-c4ccc(S(C)(=O)=O)cc4)n3)nc2c1 [Example 58, 5,7-Dimethoxy-2-(5-methoxy-6-(4-(methylsulfonyl)phenyl)pyridin-2-yl)quinazolin-4(3H)-one]	–
Active	Not Active	Not Active	Not Active	266 to 267 °C	COc1ccc2c(=O)[nH]c(-c3ccc(OCCO)c(-c4ccc([S+](C)[O-])cc4)n3)nc2c1 (centres unmarked) [Example 60, 2-(5-(2-Hydroxyethoxy)-6-(4-(methylsulfinyl)phenyl)pyridin-2-yl)-7-methoxyquinazolin-4(3H)-one]	–
Active	Not Active	Not Active	Active	167 to 170 °C	COc1cc(OC)c2c(=O)[nH]c(-c3ccc(OCC[N+]4([O-])CCCC4)c(-c4ccc(S(C)(=O)=O)cc4)n3)nc2c1 [Example 63, 1-(2-((6-(5,7-Dimethoxy-4-oxo-3,4-dihydroquinazolin-2-yl)-2-(4-(methylsulfonyl)phenyl)pyridin-3-yl)oxy)ethyl)pyrrolidine 1-oxide]	–
Active	Active	Active	Active	222 to 223 °C	COc1cccc2nc(-c3ccc(OCCNC(C)C)c(-c4ccc(S(C)(=O)=O)cc4)n3)[nH]c(=O)c12 [Example 64, 2-(5-(2-(Isopropylamino)ethoxy)-6-(4-(methylsulfonyl)phenyl)pyridin-2-yl)-5-methoxyquinazolin-4(3H)-one]	–
